Target: Cytochrome P450 2D6 (Homo sapiens) (UniProt P10635)
Test: qHTS Assay for Inhibitors of Bacillus subtilis Sfp phosphopantetheinyl transferase (PPTase): CYP 2D6
Conditions: CYP2D6 inhibition, single concentration 3 uM; at 3 µM; stronger effect = higher value
Text: The covalent attachment of a phosphopantetheinyl (4'-PP) arm to a variety of synthases and other proteins is a key posttranslational protein modification. The 4'-PP is installed on the proteins post-translationally from coenzyme A (CoA) on a conserved serine residue by action of phosphopantetheinyl transferase (PPTase) enzymes. Phosphopantetheinylation is essential for synthase activity, and removal of the PPTase gene precludes natural product synthesis in microorganisms, or in the case of fatty acid biosynthesis, renders the organism unviable. PPTase enzymes belong to a distinct structural superfamily. Within bacteria, these enzymes are grouped into two classes based upon primary structure, the AcpS-Type and Sfp-Type PPTases.
Sfp-type PPTases, corresponding to an activator of surfactin production in Bacillus subtilis, are responsible for modifying type I polyketide and nonribosomal peptide synthases of prokaryotes. Sfp-type PPTases are responsible for the activation of a variety of pathogen-associated virulence factors. Among these compounds are toxins such as mycolactone from Mycobacterium ulcerans, siderophores such as vibriobactin from Vibrio cholerae or mycobactin from Mycobacterium tuberculosis, as well as the mycolic acids which form the waxy cell wall of Mycobacteria. The biosyntheses of these natural products are considered attractive targets for drug design. […]

Chain of Cytochrome P450 2D6 (Homo sapiens) (P10635 whole entry, looked up): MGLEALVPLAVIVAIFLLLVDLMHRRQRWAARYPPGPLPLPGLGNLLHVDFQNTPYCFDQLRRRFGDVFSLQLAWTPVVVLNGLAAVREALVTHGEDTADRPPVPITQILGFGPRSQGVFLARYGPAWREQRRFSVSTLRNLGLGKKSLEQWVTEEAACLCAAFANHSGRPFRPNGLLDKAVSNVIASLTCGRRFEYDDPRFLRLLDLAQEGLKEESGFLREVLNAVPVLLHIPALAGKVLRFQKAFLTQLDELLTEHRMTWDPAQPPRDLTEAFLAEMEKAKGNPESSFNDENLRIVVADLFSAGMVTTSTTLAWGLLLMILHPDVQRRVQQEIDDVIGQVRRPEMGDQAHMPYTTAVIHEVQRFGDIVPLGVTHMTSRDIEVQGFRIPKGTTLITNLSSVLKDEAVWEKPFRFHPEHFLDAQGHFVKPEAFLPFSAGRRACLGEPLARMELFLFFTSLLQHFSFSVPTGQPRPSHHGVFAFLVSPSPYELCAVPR

inhibition: 25%
Structure (SMILES): COc1ccnc(NC(=S)N2CCN(c3ncc(C(F)(F)F)cc3Cl)CC2)c1

— PubChem BioAssay AID624119 (National Center for Advancing Translational Sciences (NCATS), 2012)
